SMILES strings stand for the structures.

In assay [1] the target is T1, 5-HT6R (Homo sapiens, UniProt P50406). As to the kind of experiment: Inhibition of 5-CT-stimulated cAMP production in 1321N1 cells. It counts as cell-based. Also on record: expressed in transfected cells. The conditions noted are these: antagonism of 5-CT (1000 nM)-stimulated cAMP. The method, then: The effect of compounds 18, 22, 27, and 28 on adenylate cyclase was examined in 1321N1 cells expressing the 5-HT6R.
The properties of compounds 18, 22, 27, 28 to inhibit cAMP production induced by 5-CT (1000 nM), a 5-HT6R agonist, were evaluated. Compounds were tested in triplicate at eight concentrations (10^–11–10^–4 M). The level of cAMP was measured using frozen recombinant 1321N1 cells expressing the human serotonin 5-HT6R (PerkinElmer). Total cAMP was measured using the LANCE cAMP detection kit (PerkinElmer), according to the manufacturer’s recommendations. For quantification of cAMP levels, 2000 cells/well (5 μL) were incubated with a mixture of compounds (5 μL) for 30 min at room temperature in 384-well white opaque microtiter plate. After incubation, the reaction was stopped and cells were lysed by the addition of 10 μL of working solution (5 μL of Eu-cAMP and 5 μL of ULight-anti-cAMP) for 1 h at room temperature. Time-resolved fluorescence resonance energy transfer (TR-FRET) was detected by an Infinite M1000 Pro (Tecan) using instrument settings from LANCE cAMP detection kit manual. Kb values were calculated from Cheng–Prusoff equation specific for the analysis of functional inhibition curves: Kb = IC50/(1 + A/EC50) where A represents agonist concentration, IC50 the concentration of antagonist producing a 50% reduction in the response to agonist, and EC50 the agonist concentration which causes a half of the maximal response.[44]
(In general: Changes in cAMP serve as a functional read-out for many G protein-coupled receptors.)

Another assay concerns the target T2, 5-HT2AR (Homo sapiens, UniProt P28223).
T2 construct: host or cells: CHO-K1
As to the kind of experiment: [3H]-ketanserin radioligand binding assay, CHO-K1 cells. The conditions noted are these: mean of three experiments.

The target in the next assay is T3, 5-HT1AR (Homo sapiens, UniProt P08908).
T3 construct: expressed in transfected cells
T3 sequence (P08908 1-422): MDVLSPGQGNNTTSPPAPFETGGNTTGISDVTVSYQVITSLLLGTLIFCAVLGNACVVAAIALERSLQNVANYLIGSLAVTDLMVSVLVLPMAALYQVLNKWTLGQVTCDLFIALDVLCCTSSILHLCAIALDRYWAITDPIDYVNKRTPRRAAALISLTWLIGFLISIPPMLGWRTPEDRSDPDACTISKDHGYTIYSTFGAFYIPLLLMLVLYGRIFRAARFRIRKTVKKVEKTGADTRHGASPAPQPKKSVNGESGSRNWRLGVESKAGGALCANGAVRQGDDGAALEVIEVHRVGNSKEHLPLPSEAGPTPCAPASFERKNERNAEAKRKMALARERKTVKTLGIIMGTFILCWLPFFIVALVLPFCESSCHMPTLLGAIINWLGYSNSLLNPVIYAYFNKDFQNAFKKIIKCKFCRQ
As to the kind of experiment: [3H]-8-OH-DPAT radioligand binding assay, HEK293 cells. The conditions noted are these: mean of three experiments. Here is the method:
(§1) All experiments were carried out according to the previously published procedures.[41]−[43] HEK293 cells stably expressing human 5-HT1A, 5-HT6, 5-HT7b, and D2L receptors (prepared with the use of Lipofectamine 2000) or CHO-K1 cells with plasmid containing the sequence coding for the human serotonin 5-HT2A receptor (PerkinElmer) were maintained at 37 °C in a humidified atmosphere containing 5% CO2 and grown in Dulbecco’s modified Eagle’s medium containing 10% dialyzed fetal bovine serum and 500 μg/mL G418 sulfate. For membrane preparation, cells were cultured in 150 cm^2 flasks, grown to 90% confluence, washed twice with prewarmed to 37 °C phosphate buffered saline (PBS), and centrifuged (200g) in PBS containing 0.1 mM EDTA and 1 mM dithiothreitol. Prior to membrane preparation, pellets were stored at −80 °C. Cell pellets were thawed and homogenized in 10 volumes of assay buffer using an Ultra Turrax tissue homogenizer and centrifuged twice at 35 000g for 15 min at 4 °C, with incubation for 15 min at 37 °C between the centrifugations. The composition of the assay buffers was experimentally selected to achieve the maximum signal window (more details in Supporting Information). All assays were carried out in a total volume of 200 μL in 96-well plates for 1 h at 37 °C except 5-HT1AR and 5-HT2AR which were incubated at room temperature and 27 °C, respectively. The process of equilibration was terminated by rapid filtration through Unifilter plates with a 96-well cell harvester, and radioactivity retained on the filters was quantified on a Microbeta plate reader (PerkinElmer, USA). For displacement studies the assay samples contained the following as radioligands (PerkinElmer, USA): 2.5 nM [^3H]-8-OH-DPAT (135.2 Ci/mmol) for 5-HT1AR; 1 nM [^3H]-ketanserin (53.4 Ci/mmol) for 5-HT2AR; 2 nM [^3H]-LSD (83.6 Ci/mmol) for 5-HT6R; 0.8 nM [^3H]-5-CT (39.2 Ci/mmol) for 5-HT7R or 2.5 nM [^3H]-raclopride (76.0 Ci/mmol) for D2LR. Nonspecific binding was defined in the presence of 10 μM 5-HT in 5-HT1AR and 5-HT7R binding experiments, whereas 20 μM mianserin, 10 μM methiothepine, and 10 μM haloperidol were used in 5-HT2AR, 5-HT6R, and D2LR assays, respectively. Each compound was tested in triplicate at seven concentrations (10^–10–10^–4 M). The inhibition constants (Ki) were calculated from the Cheng–Prusoff equation.[44]

Assay [2] addresses T1, 5-HT6R. The assay is described as follows: [3H]-LSD radioligand binding assay, HEK293 cells stably expressing human 5-HT6R. The conditions noted are these: mean of three independent experiments. Also on record: expressed in transfected cells. Here is the method:
Final compounds were evaluated in the [^3H]-LSD binding assay using HEK293 cells with stable expression of human 5-HT6R. […] Because the fluorine atom might affect the affinity at target protein as well as physicochemical and pharmacokinetic properties of compound,[22] fluorine substitution at the 2-phenyl ring was applied. […] The analysis of the binding mode of 18 and 28 (Figure 2A) confirmed that the 2-phenyl moiety is placed in the hydrophobic cavity between transmembrane domains (TMs) 4–6.
as §1

A further assay concerns the target T4, D2R (Homo sapiens, UniProt P14416).
T4 construct: expressed in transfected cells
As to the kind of experiment: [3H]-raclopride radioligand binding assay, HEK293 cells. The conditions noted are these: mean of three experiments. The method, then:
as §1

T1 sequence (P50406 whole entry): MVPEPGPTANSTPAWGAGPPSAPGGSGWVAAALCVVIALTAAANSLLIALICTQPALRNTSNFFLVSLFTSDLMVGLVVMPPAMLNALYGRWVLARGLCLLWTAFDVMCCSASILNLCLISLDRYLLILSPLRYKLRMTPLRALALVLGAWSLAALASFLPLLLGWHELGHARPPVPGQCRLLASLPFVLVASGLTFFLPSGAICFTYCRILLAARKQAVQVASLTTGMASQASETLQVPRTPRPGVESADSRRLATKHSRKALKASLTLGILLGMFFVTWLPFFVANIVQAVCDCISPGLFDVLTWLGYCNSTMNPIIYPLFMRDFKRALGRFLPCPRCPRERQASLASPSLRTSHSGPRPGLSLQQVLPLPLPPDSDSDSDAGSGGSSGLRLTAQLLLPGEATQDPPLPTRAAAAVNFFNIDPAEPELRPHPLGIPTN
T4 sequence (P14416 whole entry): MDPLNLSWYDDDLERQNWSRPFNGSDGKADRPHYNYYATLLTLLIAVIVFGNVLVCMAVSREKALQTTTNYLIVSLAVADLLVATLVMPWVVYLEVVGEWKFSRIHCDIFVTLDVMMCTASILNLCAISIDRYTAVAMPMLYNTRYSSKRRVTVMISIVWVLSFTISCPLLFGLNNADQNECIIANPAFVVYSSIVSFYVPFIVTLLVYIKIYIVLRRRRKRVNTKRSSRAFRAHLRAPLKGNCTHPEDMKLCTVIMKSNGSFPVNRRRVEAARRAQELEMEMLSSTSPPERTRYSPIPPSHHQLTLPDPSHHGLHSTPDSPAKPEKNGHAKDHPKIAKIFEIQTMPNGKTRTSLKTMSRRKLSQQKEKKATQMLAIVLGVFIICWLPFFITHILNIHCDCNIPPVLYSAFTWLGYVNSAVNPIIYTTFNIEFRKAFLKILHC
T2 sequence (P28223 whole entry): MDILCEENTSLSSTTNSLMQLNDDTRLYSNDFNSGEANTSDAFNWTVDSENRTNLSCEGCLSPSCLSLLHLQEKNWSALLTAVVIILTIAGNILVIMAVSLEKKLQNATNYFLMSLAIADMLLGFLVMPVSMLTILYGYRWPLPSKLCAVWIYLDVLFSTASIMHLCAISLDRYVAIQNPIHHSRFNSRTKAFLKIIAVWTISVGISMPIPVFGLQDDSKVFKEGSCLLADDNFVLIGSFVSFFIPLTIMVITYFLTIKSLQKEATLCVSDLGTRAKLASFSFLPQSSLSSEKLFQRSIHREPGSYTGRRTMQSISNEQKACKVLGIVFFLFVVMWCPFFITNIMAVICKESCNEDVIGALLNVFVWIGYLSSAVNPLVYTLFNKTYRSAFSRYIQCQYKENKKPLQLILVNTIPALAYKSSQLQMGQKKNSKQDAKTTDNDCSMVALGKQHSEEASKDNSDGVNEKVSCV

As usually defined, the Kb is the equilibrium dissociation constant of an antagonist, usually derived from a functional assay. A higher Kb goes with a less potent antagonist. For orientation: Ki means the dissociation constant of the complex between target and ligand, obtained from inhibition or displacement. For the compound `O=C(N[C@@H]1CCNC1)c1ccn(S(=O)(=O)c2cccc(Cl)c2)c1-c1ccc(F)cc1` [Compound 27, (R)-2-(4-Fluorophenyl)-1-[(3-chlorophenyl)sulfonyl]-N-(pyrrolidin-3-yl)-1H-pyrrole-3-carboxamide], the antagonist equilibrium constant (Kb) on 5-HT6R [1] was determined as 0.0114 µM. The inhibitory constant (Ki) on 5-HT2AR turned out to be 13.5 µM; on 5-HT1AR, 53.7 µM; at 5-HT6R [2], 0.03 µM; at D2R it was 7.08 µM.
On the same counts, the results for `O=C(N[C@H]1CCNC1)c1ccn(S(=O)(=O)c2cccc(Cl)c2)c1-c1ccc(F)cc1` [Compound 28, (S)-2-(4-Fluorophenyl)-1-[(3-chlorophenyl)sulfonyl]-N-(pyrrolidin-3-yl)-1H-pyrrole-3-carboxamide] are 0.0076 µM, 8.57 µM, 61.5 µM, 0.022 µM and 7.34 µM.

The values above are taken from publication PMC8041276 (ACS Chemical Neuroscience, 2021).
